No end group written: not given here.
How the values were obtained:
Type in all cases: cell-based
[1] = test system: Salmonella enteritidis (ATCC 15277); conditions: ATCC 15277, 12 h
Source text: (§1) The microorganisms used in the present invention include Gram-positive bacteria such as Bacillus subtilis (ATCC 62037), Staphylococcus aureus (ATCC 15752) and Streptococcus mutans (ATCC 25175), Gram-negative bacteria such as Escherichia coli (ATCC 27325), Salmonella enteritidis (ATCC 15277) and Pseudomonas putida (ATCC 17426) and fungi such as Candida albicans (ATCC 10231), Saccharomyces cerevisiae (ATCC 44774) and Cryptococcus neoformans (ATCC 34881), obtained from American Type Culture Collection (ATCC).
(§2) The antimicrobial activity of the peptides prepared in Example 1 was determined against microorganisms by 96-well microdilution minimal inhibitory concentration assay. After overnight culturing the bacteria and fungi in trypticase soy broth (TSB) and Saboraud (SAB) at 37° C. and 30° C., respectively, they were inoculated in new media and cultured for 2 hours to exponential growth phase. After diluting the microorganisms to 10^5 per 1 ml, 190 μl was inoculated in each 96-well plate, and 10 μl of serially diluted peptides were added in each well.

[2] = test system: Pseudomonas putida (ATCC 17426); conditions: ATCC 17426, 12 h
Source text: as §1, §2

[3] = test system: Saccharomyces cerevisiae (ATCC 44774); conditions: ATCC 44774, 12 h
Source text: as §1, §2

[4] = test system: Staphylococcus aureus (ATCC 15752); conditions: ATCC 15752, 12 h
Source text: as §1, §2

[5] = test system: Streptococcus mutans (ATCC 25175); conditions: ATCC 25175, 12 h
Source text: as §1, §2

[6] = test system: Bacillus subtilis (ATCC 62037); conditions: ATCC 62037, 12 h
Source text: as §1, §2

[7] = test system: Escherichia coli (ATCC 27325); conditions: ATCC 27325, 12 h
Source text: as §1, §2

[8] = test system: Cryptococcus neoformans (ATCC 34881); conditions: ATCC 34881, 12 h
Source text: as §1, §2

[9] = test system: Candida albicans (ATCC 10231); conditions: ATCC 10231, 12 h
Source text: as §1, §2

| Substance | Minimum Inhibitory Concentration [1] [µg/mL] | Minimum Inhibitory Concentration [2] [µg/mL] | Minimum Inhibitory Concentration [3] [µg/mL] | Minimum Inhibitory Concentration [4] [µg/mL] | Minimum Inhibitory Concentration [5] [µg/mL] | Minimum Inhibitory Concentration [6] [µg/mL] | Minimum Inhibitory Concentration [7] [µg/mL] | Minimum Inhibitory Concentration [8] [µg/mL] | Minimum Inhibitory Concentration [9] [µg/mL] |
| --- | --- | --- | --- | --- | --- | --- | --- | --- | --- |
| KVLKKVLKKVLKNWPIGKVLK [compound 57] | 1 | 1 | 2 | 1 | 2 | 1 | 2 | 1 | 1 |
| KVLKNWPIGKVLKKVLKKVLK [compound 23] | 2 | 1 | 1 | 1 | 2 | 1 | 1 | 1 | 1 |
| KVLRKVLRKVLRNWPIGKVLR [compound 65] | 2 | 1 | 1 | 1 | 2 | 2 | 1 | 1 | 1 |
| KVLRKVLRKVLRQWPIGKVLR-NH2 [compound 71] | 1 | 1 | 2 | 1 | 1 | 1 | 1 | 1 | 1 |
| KVLRNWPIGKVLRKVLRKVLR [compound 31] | 1 | 1 | 2 | 1 | 2 | 1 | 1 | 1 | 1 |
| KVVKKVVKKVVKNWPIGKVVK [compound 53] | 1 | 1 | 1 | 1 | 1 | 1 | 1 | 1 | 2 |
| KVVKKVVKKVVKQWPIGKVVK [compound 36] | 1 | 1 | 2 | 1 | 2 | 1 | 2 | 1 | 2 |
| KVVKNWPIGKVVKKVVKKVVK [compound 19] | 1 | 1 | 2 | 1 | 1 | 2 | 2 | 1 | 1 |
| KVVKQWPIGKVVKKVVKKVVK [compound 2] | 1 | 1 | 2 | 1 | 2 | 1 | 1 | 1 | 1 |
| KVVRKVVRKVVRQWPIGKVVR [compound 44] | 1 | 1 | 1 | 1 | 2 | 2 | 1 | 1 | 2 |
| KVVRQWPIGKVVRKVVRKVVR [compound 10] | 1 | 1 | 2 | 1 | 2 | 1 | 1 | 1 | 2 |
| RLLKQWPIGRLLKRLLKRLLK [compound 11] | 2 | 1 | 2 | 1 | 2 | 1 | 1 | 1 | 1 |
| RLLKRLLKRLLKQWPIGRLLK [compound 45] | 2 | 1 | 2 | 1 | 1 | 1 | 1 | 2 | 2 |
| RLLRNWPIGRLLRRLLRRLLR [compound 20] | 2 | 1 | 2 | 1 | 2 | 2 | 1 | 1 | 1 |
| RLLRQWPIGRLLRRLLRRLLR [compound 3] | 1 | 1 | 2 | 1 | 1 | 2 | 2 | 1 | 1 |
